Patent US20260159474A1, “Aminoindane Compounds and Compositions and Methods of Their Therapeutic Use” (Solvonis Therapeutics Ireland Holdings Limited, priority 2021, published 2026)
“Also recorded” adds a separate entry of the source.

Assays:
[1] = Plasma protein binding by equilibrium dialysis, human plasma; type: in vitro ADME; conditions: for Human Plasma (Fu %): fraction unbound, 0.5 μM; for fraction unbound at 5 h, 0.5 μM: human, plasma, pH 7.4, read-out: Human Plasma (Fu %)
Description: Methods: Plasma protein binding and blood tissue binding of test items (0.5 μM) was determined using biological samples from male Sprague Dawley (SD) rats and humans. […] Dexamethasone was used as a control compound for lung tissue binding. Various biological samples were spiked with test compounds according to the methods that follow.
Preparation of plasma or blood samples: An appropriate amount of test compound was dissolved in DMSO to yield a 10 mM solution. Further dilutions, to obtain 50 μM working solutions (WS), were then prepared using 50% acetonitrile in Milli-Q water. These 100×WS were used to spike plasma or blood to obtain a final concentration of 0.5 μM. From this initial spiking solution, control samples (n=3), referred to as T=0, were immediately extracted and used to calculate the recovery of the test item.
An equilibrium dialysis method was performed to determine protein binding in the various biological samples described herein. Materials were prepared and methods were in accordance with the following procedures.
Membranes were prepared for use in the equilibrium dialysis experiment. by soaking in deionized water for at least 60 minutes. After this period, 20% of pure ethanol was added, and the membranes were left in this solution for at least 20 minutes. The membranes were then rinsed in Milli-Q water prior to use.
To initiate the experiment, 150 μL of test item-free buffer (isotonic phosphate buffer for plasma and blood, artificial CSF buffer for brain or HBSS buffer for lung) was dispensed on one half-well of a 96-well dialyzer apparatus (HTDialysis LLC), and 150 μL of spiked matrix (plasma, blood, brain or lung) was loaded on the other half-well. Alternative volumes may be used according to the operating instructions of HTDialysis.
Dialysis buffer was prepared by dissolving Na2HPO4 8.69 g, KH2PO4 1.90 g, and NaCl 4.11 g in […] of MilliQ water, and adjusting the pH to 7.4 with H3PO4. At the end of the equilibration period (device is sealed and incubated under shaking for 5 hours at 37° C.), 50 μL of dialysed matrix will be added to 50 μL of corresponding test item free dialysed buffer, and vice versa for buffer, such that the volume of buffer to matrix will be the same. Samples were extracted by protein precipitation with 300 μL of acetonitrile containing rolipram (for positive ionization mode) or diclofenac (for negative ionization mode) as internal standard and centrifuged for 10 minutes at 2800 rpm. Supernatants were collected (100 μL), diluted with 18% ACN in Milli Q water (200 μL).
Samples were then injected onto an HPLC MS/MS or UPLC MS/MS system. In order to control the integrity of the membrane after the dialysis process, the presence of protein was assessed in the buffer compartment. 5 μL of dialysed buffer will be added with 250 μL of Bio-Rad protein assay reagent (Bio-Rad) diluted 1:5 with Milli-Q water. A change in color from brown to a brilliant blue indicates protein contamination. Contaminated samples were excluded from all calculations.
Samples were analyzed in a LC-MS/MS system using an analytical method to monitor the compound to internal standard peak area ratios as representative of the compound concentrations. Alternatively, samples were analyzed by RapidFire.
Protein binding in plasma, blood, brain, and lung tissue samples were determined with the following formula: Afu=Buffer/x, wherein “x” may be plasma, blood, brain, or lung, and “Afu” is the apparent fraction unbound, and the other variables refer to the analyte/internal standard ratio determined in their specific compartment (buffer, plasma, blood, brain homogenate, and lung homogenate); Fucr-(1/D)/[(1/Afu)-1+(1/D)], wherein fucr is the fraction unbound corrected, D is the matrix dilution factor (D=1 for plasma, 2 for blood, 3 for brain, 7 for lung). % Binding=(1−fucr)×100 and % Unbound=100—% Bound. See, e.g., Kalvass et al., Drug Metab Dispos., 2018; 46(4):458-469. […]

[2] = Intrinsic clearance in human liver microsomes; type: in vitro ADME; conditions: for microsomal CLint at 0.5 μM: pH 7.4, read-out: Cl (μL/min/mg protein) - Human Microsomes
Description: Methods: The general procedure involved incubating test compounds with liver microsomes and subsequently detecting the compounds to determine intrinsic clearance. Clearance was estimated from the rate of depletion k (min-1), the volume of the incubation V (mL), and the amount of microsomal proteins in the incubation M (mg). Intrinsic clearance is defined by the following equation: Clint=k*V/M.
Values for CLint are expressed as μL/min/mg liver microsomes. Verapamil and dextromethorphan were used as positive controls for CYP3A4 and CYP2D6 isoforms, respectively, to confirm metabolic activity. Stock solutions were prepared in DMSO for therapeutic compounds and positive controls verapamil and dextromethorphan (10 mM for all). Working solutions were prepared by diluting stock in MeOH to reach […]. However, this concentration can be varied, e.g., when the test item is not soluble in the selected solvent.
Prior to experimentation, frozen liver microsomes were thawed in a water bath at 37° C. and kept on ice until use. The microsomes were then diluted with 50 mM potassium phosphate buffer pH 7.4 to a protein concentration of 0.56 mg/mL. To prepare test and control items in final incubation conditions, 5 μL of test compound and positive control working solutions were added to 445 μL of microsomes incubation mixture at 0.56 mg/mL and 50 μL of regenerating system.
As it relates to the automated incubation procedure for microsomes incubation, the following procedure was followed. Briefly, 150 μL of quenching solution (ACN containing an appropriate Internal Standard, i.e. Rolipram and Diclofenac for positive and negative ion mode, respectively) was manually dispensed or dispensed by using the Hamilton system in each well of 96 deep well 1 mL plates. Next, 800-1000 μL-aliquots of NADPH regenerating system were pre-warmed at 37° C. for 5 minutes. 5 μL of 50 µM test items and control were added to 445 μL of the 0.56 mg/mL microsomes solution, and the incubation mixture was pre-warmed in a 96 deep well 2 mL plate (incubation plate) at 37° C. for 5 minutes. The incubation reactions were initiated by adding 50 μL of pre-warmed NADPH regenerating system to the incubation mixtures.
50 μL-aliquots were sampled from incubation mixtures at: 0, 3, 10, 15, 30, and 45 minutes. The samples were centrifuged at 3,000 rpm for 10 minutes and further diluted in order to optimize the analytical condition prior to the LC MS/MS or Rapid Fire-MS/MS analysis. Incubations of test items were run in duplicate (n=2) with a single positive control (n=1). For sample analysis, an LC-MS/MS system was used to monitor the test samples/control to internal standard peak area ratios as representative of the test or control item's concentration. Data from test item incubation was processed to give mean values where applicable. Metabolic stability was calculated from the ratio of peak area of the remaining test or control item with internal standard versus time.
Peak areas for test and control items were integrated using Integrator Software from Agilent or Analyst or MultiQuant Software from AB SciexTM and were exported to XLFit or Morphit (The Edge), which were designed to calculate in vitro metabolic stability parameters. The integrated peak areas of the test and control items at the selected time points were divided by the respective peak areas of the IS, and the percent of parent remaining was calculated by normalizing the peak area ratio of parent to IS at 0 min. Observed rate constant (kobs) for parent degradation was calculated by determining the slope of the line of the graph of the natural log of percentage parent remaining versus time of incubation. This was scaled for the protein in the incubation relative to that in the liver.

SMILES | Human Plasma (Fu %) [1] | fraction unbound at 5 h, 0.5 μM [1] | Cl (μL/min/mg protein) - Human Microsomes [2] | microsomal CLint at 0.5 μM [2] [µL/min/mg]
COC(=O)c1cc2c(cc1OC)CC(N)C2 (centres unmarked) [CMP-401] | >50% | > 0.5 | greater clearance in human microsomes relative to MDMA | 87.2
COC(=O)COc1ccc2c(c1)CC(N)C2 (centres unmarked) [CMP-402] | >50% | > 0.5 | greater clearance in human microsomes relative to MDMA; also recorded: greatest clearance | 758
COC(=O)c1ccc2c(c1)CC(N)C2 (centres unmarked) [CMP-405, 2-aminoindane-5-methylcarboxylate] | high binding in plasma specimens and Low | – | greater clearance in human microsomes relative to MDMA | 137
CNC(C)Cc1ccc2c(c1)OCO2 (centres unmarked) [MDMA] | >50% | – | 41 μL/min/mg protein | –
COc1ccc2c(c1)CC(N)C2 (centres unmarked) [MEAI, 5-methoxy-2-aminoindane] | – | > 0.5 | – | 137
COc1cc2c(cc1C)CC(N)C2 (centres unmarked) [MMAI, 5-methoxy-6-methyl-2-aminoindane] | – | > 0.5 | – | 46.7
